Assay results: ChEMBL document CHEMBL5465560, “Selectivity Literature for EUbOPEN Chemogenomic Library” (2024)
One block for each compound: values may come before it.

Assays:
[1] = biological target: Diacylglycerol kinase beta (Homo sapiens) (UniProt Q9Y6T7); assay: Selectivity interaction (Kinase panel (literature)) EUB0001199aCl DGKB; details: at 1 µM
[2] = biological target: T1, Mitogen-activated protein kinase kinase kinase 13 (Homo sapiens) (UniProt O43283); assay: Selectivity interaction (KinomeScan (DiscoverX)) EUB0000655a MAP3K13; details: at 10 µM
T1 sequence (whole entry): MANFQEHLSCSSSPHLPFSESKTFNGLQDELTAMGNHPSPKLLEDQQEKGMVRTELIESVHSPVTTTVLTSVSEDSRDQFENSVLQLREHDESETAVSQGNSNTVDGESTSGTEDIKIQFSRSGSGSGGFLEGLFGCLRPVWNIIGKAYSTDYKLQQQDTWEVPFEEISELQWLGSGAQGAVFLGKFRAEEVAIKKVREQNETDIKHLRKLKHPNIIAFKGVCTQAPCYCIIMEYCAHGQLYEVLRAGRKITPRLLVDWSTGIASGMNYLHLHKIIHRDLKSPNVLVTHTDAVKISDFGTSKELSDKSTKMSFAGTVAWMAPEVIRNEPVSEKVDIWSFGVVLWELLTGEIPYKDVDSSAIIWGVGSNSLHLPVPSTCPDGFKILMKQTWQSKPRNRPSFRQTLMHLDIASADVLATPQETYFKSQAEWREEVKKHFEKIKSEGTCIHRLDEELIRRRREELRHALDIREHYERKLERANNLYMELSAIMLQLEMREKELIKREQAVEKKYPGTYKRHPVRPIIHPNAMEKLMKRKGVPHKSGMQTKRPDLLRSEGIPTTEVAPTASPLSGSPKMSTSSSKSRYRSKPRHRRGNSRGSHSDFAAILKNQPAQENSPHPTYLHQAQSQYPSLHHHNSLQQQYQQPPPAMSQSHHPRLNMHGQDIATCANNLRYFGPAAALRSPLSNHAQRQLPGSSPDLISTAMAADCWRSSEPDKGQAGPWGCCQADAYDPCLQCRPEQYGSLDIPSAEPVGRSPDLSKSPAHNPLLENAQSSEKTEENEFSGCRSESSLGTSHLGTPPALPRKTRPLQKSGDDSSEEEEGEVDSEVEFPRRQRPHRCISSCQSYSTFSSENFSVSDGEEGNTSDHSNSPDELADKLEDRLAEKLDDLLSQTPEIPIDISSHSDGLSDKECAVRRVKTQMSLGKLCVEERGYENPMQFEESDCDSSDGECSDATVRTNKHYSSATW

[3] = biological target: T2, Serine/threonine-protein kinase BRSK1 (Homo sapiens) (UniProt Q8TDC3); assay: Selectivity interaction (KinomeScan (DiscoverX)) EUB0001079a BRSK1; details: at 1 µM
T2 sequence (whole entry): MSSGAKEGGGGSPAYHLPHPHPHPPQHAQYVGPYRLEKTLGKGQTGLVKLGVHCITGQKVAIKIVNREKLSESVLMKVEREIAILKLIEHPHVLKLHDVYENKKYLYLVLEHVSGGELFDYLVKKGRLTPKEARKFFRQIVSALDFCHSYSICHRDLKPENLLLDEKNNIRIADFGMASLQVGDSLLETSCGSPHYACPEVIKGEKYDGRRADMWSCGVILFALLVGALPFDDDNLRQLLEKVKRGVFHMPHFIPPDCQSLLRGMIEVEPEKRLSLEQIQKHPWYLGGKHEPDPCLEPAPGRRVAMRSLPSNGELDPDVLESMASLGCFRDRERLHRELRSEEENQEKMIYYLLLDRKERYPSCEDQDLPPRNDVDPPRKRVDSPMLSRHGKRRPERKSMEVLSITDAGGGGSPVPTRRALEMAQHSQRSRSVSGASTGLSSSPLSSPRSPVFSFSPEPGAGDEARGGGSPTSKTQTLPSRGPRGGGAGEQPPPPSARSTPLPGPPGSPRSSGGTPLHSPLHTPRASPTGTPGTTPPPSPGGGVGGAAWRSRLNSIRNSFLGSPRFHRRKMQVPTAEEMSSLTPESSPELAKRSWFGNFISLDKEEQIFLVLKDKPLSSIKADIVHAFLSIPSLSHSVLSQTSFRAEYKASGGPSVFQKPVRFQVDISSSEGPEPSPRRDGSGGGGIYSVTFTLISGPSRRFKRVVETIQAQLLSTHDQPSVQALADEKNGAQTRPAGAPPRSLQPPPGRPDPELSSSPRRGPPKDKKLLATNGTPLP

[4] = biological target: Tyrosine-protein kinase SYK (Homo sapiens, UniProt P43405); assay: Selectivity interaction (KinomeScan (DiscoverX)) EUB0000607a SYK; details: at 10 µM
[5] = biological target: Wee1-like protein kinase 2 (Homo sapiens) (UniProt P0C1S8); assay: Selectivity interaction (KinomeScan (DiscoverX)) EUB0001619a WEE2; details: at 1 µM
[6] = biological target: Casein kinase I isoform delta (Homo sapiens, UniProt P48730); assay: Selectivity interaction (Kinase panel (DSF assay)) EUB0001558a CSNK1D
[7] = biological target: STE20-like serine/threonine-protein kinase (Homo sapiens, UniProt Q9H2G2); assay: Selectivity interaction (Kinase panel (KiNativ target engagement assay in Jurkat cells)) EUB0001635a SLK; assay type: cell-based; details: Selectivity number of off-targets 0.0, Selectivity number of targets 233.0, Source Knowledge https://www.sciencedirect.com/science/article/pii/S2451945619300674?via%3Dihub, at 1 µM
[8] = biological target: ALK tyrosine kinase receptor (Homo sapiens, UniProt Q9UM73); details: at 10 µM
[9] = biological target: Tyrosine-protein kinase JAK1 (Homo sapiens, UniProt P23458); details: at 10 µM
[10] = biological target: Serine/threonine-protein kinase 38 (Homo sapiens) (UniProt Q15208); assay: Selectivity interaction (ActivX KiNativ screen (kinase selectivity in THP-1 cell lysates)) EUB0000639a STK38; assay type: subcellular; details: lysate, at 1 µM

Chain of Casein kinase I isoform delta (P48730 whole entry, looked up, canonical isoform): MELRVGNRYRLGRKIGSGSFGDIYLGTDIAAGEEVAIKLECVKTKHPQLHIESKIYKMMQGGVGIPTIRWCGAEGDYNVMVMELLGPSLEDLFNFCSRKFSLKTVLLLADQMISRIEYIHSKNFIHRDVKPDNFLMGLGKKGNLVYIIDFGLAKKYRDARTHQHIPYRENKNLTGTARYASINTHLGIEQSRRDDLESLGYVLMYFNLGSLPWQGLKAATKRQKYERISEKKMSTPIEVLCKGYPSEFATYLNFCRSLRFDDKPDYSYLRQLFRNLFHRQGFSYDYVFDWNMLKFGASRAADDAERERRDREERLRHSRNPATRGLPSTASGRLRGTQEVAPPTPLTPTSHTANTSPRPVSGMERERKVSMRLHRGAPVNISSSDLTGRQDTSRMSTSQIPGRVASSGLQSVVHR
Chain of ALK tyrosine kinase receptor (Q9UM73 19-1620 limits assumed): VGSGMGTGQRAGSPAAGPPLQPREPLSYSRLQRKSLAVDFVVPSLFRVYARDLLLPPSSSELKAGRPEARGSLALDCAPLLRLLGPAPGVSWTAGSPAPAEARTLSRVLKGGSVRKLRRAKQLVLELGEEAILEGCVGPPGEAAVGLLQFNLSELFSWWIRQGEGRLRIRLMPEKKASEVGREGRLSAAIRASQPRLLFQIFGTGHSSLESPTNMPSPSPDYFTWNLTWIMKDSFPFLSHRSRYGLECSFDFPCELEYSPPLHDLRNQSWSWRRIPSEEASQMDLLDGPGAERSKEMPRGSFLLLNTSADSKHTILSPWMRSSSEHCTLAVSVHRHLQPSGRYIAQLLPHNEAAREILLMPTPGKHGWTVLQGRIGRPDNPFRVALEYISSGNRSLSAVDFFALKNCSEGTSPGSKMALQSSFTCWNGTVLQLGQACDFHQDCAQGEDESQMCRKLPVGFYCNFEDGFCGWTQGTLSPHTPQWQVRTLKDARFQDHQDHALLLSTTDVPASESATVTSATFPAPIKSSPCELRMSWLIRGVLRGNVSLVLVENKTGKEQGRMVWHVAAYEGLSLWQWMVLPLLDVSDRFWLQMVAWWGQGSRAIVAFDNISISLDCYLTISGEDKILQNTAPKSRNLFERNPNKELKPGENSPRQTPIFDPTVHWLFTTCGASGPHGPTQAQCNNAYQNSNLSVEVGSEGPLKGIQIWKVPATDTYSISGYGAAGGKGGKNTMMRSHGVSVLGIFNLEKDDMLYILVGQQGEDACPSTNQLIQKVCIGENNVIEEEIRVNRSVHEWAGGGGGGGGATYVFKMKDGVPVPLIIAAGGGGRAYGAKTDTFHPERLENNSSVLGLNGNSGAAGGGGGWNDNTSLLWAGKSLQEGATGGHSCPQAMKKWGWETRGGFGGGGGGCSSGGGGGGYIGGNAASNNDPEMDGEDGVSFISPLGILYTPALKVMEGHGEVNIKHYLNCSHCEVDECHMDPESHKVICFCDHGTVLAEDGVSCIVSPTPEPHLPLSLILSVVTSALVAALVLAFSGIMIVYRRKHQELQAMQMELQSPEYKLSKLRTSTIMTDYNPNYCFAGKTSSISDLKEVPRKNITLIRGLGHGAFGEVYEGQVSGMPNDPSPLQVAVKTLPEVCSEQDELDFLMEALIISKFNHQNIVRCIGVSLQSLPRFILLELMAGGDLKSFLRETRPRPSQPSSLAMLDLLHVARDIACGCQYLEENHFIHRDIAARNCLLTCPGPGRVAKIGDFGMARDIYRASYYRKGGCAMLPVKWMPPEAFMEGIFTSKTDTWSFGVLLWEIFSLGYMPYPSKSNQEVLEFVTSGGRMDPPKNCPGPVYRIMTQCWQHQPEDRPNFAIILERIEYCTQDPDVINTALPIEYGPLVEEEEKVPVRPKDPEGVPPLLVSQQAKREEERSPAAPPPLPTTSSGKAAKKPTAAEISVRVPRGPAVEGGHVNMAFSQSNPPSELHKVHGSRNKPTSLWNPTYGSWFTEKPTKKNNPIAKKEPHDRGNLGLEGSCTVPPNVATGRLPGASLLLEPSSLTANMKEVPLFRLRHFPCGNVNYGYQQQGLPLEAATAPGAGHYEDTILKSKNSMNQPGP
Chain of Wee1-like protein kinase 2 (Homo sapiens) (P0C1S8 whole entry, looked up, canonical isoform): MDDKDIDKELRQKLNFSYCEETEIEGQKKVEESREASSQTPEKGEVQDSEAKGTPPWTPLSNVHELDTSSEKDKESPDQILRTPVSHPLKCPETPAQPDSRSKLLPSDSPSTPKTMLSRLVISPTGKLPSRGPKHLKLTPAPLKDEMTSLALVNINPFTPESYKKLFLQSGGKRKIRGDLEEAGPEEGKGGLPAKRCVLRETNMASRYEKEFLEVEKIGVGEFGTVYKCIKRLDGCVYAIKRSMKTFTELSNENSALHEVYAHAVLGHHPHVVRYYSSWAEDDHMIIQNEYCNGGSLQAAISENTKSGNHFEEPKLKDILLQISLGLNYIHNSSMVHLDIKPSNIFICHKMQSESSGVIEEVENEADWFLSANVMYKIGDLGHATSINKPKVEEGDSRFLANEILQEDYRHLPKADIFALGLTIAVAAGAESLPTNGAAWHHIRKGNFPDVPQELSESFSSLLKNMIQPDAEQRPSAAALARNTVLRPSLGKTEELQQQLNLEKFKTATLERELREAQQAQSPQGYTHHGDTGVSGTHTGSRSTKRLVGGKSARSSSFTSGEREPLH
Chain of Tyrosine-protein kinase JAK1 (P23458 whole entry): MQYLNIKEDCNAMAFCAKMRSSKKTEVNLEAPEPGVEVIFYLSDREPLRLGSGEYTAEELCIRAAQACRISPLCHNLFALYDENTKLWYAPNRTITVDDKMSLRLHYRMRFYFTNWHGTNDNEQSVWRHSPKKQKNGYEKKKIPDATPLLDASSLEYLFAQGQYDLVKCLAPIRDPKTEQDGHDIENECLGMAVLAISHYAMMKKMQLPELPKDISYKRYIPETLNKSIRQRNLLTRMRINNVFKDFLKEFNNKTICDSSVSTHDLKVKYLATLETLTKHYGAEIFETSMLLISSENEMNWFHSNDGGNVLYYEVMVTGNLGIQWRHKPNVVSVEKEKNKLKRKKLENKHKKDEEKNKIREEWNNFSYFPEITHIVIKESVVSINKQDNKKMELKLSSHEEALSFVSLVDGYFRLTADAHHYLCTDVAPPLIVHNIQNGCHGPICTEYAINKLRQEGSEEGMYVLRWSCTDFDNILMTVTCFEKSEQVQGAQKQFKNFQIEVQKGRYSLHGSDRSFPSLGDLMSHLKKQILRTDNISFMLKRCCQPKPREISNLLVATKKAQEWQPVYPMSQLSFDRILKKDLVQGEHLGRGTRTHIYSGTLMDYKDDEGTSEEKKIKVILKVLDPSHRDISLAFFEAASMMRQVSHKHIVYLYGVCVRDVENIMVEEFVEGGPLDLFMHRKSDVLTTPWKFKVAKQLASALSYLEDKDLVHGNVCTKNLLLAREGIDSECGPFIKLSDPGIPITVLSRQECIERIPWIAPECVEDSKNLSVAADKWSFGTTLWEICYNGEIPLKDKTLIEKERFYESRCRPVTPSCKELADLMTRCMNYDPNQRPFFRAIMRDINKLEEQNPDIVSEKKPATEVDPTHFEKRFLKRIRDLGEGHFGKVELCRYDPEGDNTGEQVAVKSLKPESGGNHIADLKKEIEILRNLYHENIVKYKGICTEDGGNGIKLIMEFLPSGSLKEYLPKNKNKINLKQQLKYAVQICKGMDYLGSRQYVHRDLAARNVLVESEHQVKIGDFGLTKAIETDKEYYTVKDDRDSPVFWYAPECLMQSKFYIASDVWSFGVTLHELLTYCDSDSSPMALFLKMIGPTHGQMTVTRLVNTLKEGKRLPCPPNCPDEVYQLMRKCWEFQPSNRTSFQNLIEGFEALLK
Chain of STE20-like serine/threonine-protein kinase (Q9H2G2 whole entry, looked up): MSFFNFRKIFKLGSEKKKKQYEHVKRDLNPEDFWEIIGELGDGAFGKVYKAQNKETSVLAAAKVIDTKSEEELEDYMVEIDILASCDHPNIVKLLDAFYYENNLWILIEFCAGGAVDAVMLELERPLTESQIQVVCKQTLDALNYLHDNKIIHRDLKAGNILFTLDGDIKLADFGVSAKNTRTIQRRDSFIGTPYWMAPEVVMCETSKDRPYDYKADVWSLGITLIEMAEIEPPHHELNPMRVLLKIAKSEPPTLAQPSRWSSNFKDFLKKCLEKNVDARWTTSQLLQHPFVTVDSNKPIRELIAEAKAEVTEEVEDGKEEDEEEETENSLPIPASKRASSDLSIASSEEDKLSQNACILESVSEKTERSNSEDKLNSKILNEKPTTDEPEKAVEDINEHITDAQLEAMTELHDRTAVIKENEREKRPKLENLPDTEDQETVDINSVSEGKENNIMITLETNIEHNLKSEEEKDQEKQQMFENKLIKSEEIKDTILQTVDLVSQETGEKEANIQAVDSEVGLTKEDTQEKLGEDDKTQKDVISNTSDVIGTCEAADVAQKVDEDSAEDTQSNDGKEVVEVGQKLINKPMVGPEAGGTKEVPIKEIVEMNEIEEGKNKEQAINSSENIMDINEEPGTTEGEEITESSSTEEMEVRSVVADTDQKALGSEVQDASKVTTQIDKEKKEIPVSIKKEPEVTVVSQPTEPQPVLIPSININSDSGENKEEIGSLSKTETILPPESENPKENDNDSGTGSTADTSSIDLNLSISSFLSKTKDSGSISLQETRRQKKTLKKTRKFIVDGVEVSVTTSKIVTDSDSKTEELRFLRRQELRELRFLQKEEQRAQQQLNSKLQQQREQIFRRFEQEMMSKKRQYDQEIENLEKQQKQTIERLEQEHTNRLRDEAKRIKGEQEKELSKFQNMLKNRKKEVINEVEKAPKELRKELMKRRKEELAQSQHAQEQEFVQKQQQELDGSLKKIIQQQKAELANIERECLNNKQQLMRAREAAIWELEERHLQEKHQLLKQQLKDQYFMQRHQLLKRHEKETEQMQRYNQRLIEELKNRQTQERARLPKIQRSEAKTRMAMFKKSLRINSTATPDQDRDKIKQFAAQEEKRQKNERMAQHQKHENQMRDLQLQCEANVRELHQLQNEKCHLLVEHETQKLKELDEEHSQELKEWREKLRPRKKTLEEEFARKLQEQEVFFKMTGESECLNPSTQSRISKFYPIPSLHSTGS

% of inhibition [1]: -9%
SMILES: CN1Cc2nccc(-c3cn(C)nc3-c3ccc(F)cc3)c2C1=O

SMILES: CN(C)CCOc1ccc(-c2nc(-c3ccncc3)c(-c3ccc4c(c3)CC/C4=N\O)[nH]2)cc1
% of control [2]: 100%

SMILES: Nc1cnc(N2CCc3cc(S(=O)(=O)Nc4c(F)cc(Cl)cc4F)cc(N4CCCC4=O)c32)nc1 [TP-020n]
% of control [3]: 100%

SMILES: CNC(=O)Nc1ccc(-c2nc(N3CC4CCC(C3)O4)c3cnn(C4CCC5(CC4)OCCO5)c3n2)cc1
% of control [4]: 100%

SMILES: N#Cc1cccc(-c2c[nH]c3ncnc(N4CCOCC4)c23)c1
% of control [5]: 96%

SMILES: CC(C)(O)[C@H](F)CN1Cc2cc(NC(=O)c3cnn4cccnc34)c(N3CCOCC3)cc2C1=O
dTM [6]: 1.9 K

SMILES: C=CC(=O)Nc1ccc(C(=O)Nc2[nH]nc3c2CN(C(=O)N[C@H](CN(C)C)c2ccccc2)C3(C)C)cc1
% of engagement [7]: 13%

SMILES: Cc1cc([C@@H](C)Nc2ccccc2C(=O)O)c2nc(N3CCOCC3)cc(=O)n2c1 [AZD-6482]
% of control [8]: 100% | % of control [9]: 100%

% of inhibition [10]: 65.8%
SMILES: CC[C@@H]1[C@H](F)C(=O)N[C@@H]1COc1nccc2cc(C(N)=O)c(OC)cc12 [ZIMLOVISERTIB]
